From patent publication US11214772B2, “Production method for retinal tissue” (SUMITOMO DAINIPPON PHARMA CO., LTD., priority 2014, dated 2022)

B1: BMP4: human recombinant BMP4 (manufactured by R&D), BMP signal transduction pathway activating substance (protein, UniProt P12644 293-408, looked up)
Bone morphogenetic protein 4: SPKHHSQRARKKNKNCRRHSLYVDFSDVGWNDWIVAPPGYQAFYCHGDCPFPLADHLNSTNHAIVQTLVNSVNSSIPKACCVPTELSAISMLYLDEYDKVVLKNYQEMVVEGCGCR

Assays:
Format in all cases: cell-based
[1] = test system: human iPS cells (1231A3 strain); assay: Bright field observation of cell aggregates in suspension culture (aggregate shape, neuroepithelium / neural tissue formation); settings: for aggregate growth and neuroepithelium formation (bright field): Example 7, SAG 30 nM, PMA 0.2 μM or human recombinant Shh 300 ng/ml day 0, BMP4 1.5 nM day 3
Description: The above subconfluent human iPS cells were treated with a cell dispersion solution by using TrypLE Select (Life Technologies), and further dispersed into single cells by a pipetting operation. Thereafter, the above human iPS cells dispersed into single cells were suspended in 100 μl of a serum-free medium in a non-cell-adhesive 96 well culture plate (PrimeSurface 96V-bottom plate, SUMITOMO BAKELITE) at 1.2×10^4 cells per well, and subjected to suspension culturing at 37° C., 5% CO2. As a serum-free medium (gfCDM+KSR) therefor, a 1:1 mixture of F-12 medium and IMDM medium supplemented with 10% KSR, 450 μM 1-monothioglycerol, 1× Chemically defined lipid concentrate was used. At the start of the suspension culturing (on day 0 after the start of suspension culturing, step 2 start), Y27632 (final concentration 20 μM) was added to the above serum-free medium. By day 2 after the start of suspension culturing, cell aggregates were formed (step 2 completed, and step 3 start). On day 3 after the start of suspension culturing, a serum-free medium (50 μl) free of Y27632 was added.
On day 6 after the start of suspension culturing, a half amount of the medium was changed with a medium free of Y27632 and containing or not containing human recombinant BMP4 (manufactured by R&D) to adjust the final concentration of exogenous human recombinant BMP4 to 1.5 nM (55 ng/ml, FIG. 1B) or to give a medium free of exogenous human recombinant BMP4 (FIG. 1A). As the half-medium exchange operation, a half volume of the medium in the culture vessel, namely 75 μl, was discarded, the above fresh serum-free medium (75 μl) was added to adjust the total medium amount to 150 μl. Thereafter, a half amount of the medium was changed with the above serum-free medium free of Y27632 and human recombinant BMP4 once per 2-4 days. […]
The thus-prepared subconfluent human iPS cells were treated with a cell dispersion solution by using TrypLE Select (Life Technologies), and further dispersed into single cells by a pipetting operation. Thereafter, the above human iPS cells dispersed into single cells were suspended in 100 μl of a serum-free medium in a non-cell-adhesive 96 well culture plate (PrimeSurface 96V-bottom plate, SUMITOMO BAKELITE) at 1.2×10^4 cells per well, and subjected to suspension culturing at 37° C., 5% CO2. As a serum-free medium (gfCDM+KSR) therefor, a 1:1 mixture of F-12 medium and IMDM medium supplemented with 10% KSR, 450 μM 1-monothioglycerol, 1× Chemically defined lipid concentrate was used. […] By day 2 after the start of suspension culturing, cell aggregates were formed (step 2 completed, step 3 start). On day 3 after the start of suspension culturing, a serum-free medium (50 μl) free of Y27632 and SAG was added. On day 6 after the start of suspension culturing, a half amount of the medium was changed with a medium free of Y27632 and containing or not containing human recombinant BMP4 (manufactured by R&D) to adjust the final concentration of exogenous human recombinant BMP4 to 1.5 nM (55 ng/ml, FIG. 1D) or to give a medium free of exogenous human recombinant BMP4 (FIG. 1C). As the half-medium exchange operation, a half volume of the medium in the culture vessel, namely 75 μl, was discarded, the above fresh serum-free medium (75 μl) was added to adjust the total medium amount to 150 μl. Thereafter, a half amount of the medium was changed with the above serum-free medium free of Y27632, SAG and human recombinant BMP4 once per 2-4 days. […]
The thus-prepared subconfluent human iPS cells were treated with the cell dispersion solution by using TrypLE Select (Life Technologies), further dispersed into single cells by pipetting operation, and the above human iPS cells dispersed into single cells were suspended in 100 μl of a serum-free medium at 1.2×10^4 cells per well of a non-cell-adhesive 96-well culture plate (PrimeSurface 96V-bottom plate, manufactured by SUMITOMO BAKELITE). Thereafter, the cells were subjected to suspension culturing at 37° C., 5% CO2. […]

[2] = test system: human iPS cells (1231A3 strain); assay: Immunostaining of aggregate cryosections for retinal tissue markers Chx10 and Rx; settings: Example 7, BMP4 1.5 nM day 3, day 18
Description: The above cell aggregates on day 19 after the start of suspension culturing were each fixed with 4% para-formaldehyde to give cryosections. These cryosections were immunostained for Chx10 (anti-Chx10 antibody, manufactured by Exalpha, sheep), which is one of the retinal tissue markers, or Rx (anti-Rx antibody, manufactured by TAKARA, guinea pig), which is one of the retinal tissue markers. In judgment of whether the above marker is positive in the immunostaining analysis, a fluorescence intensity which is not less than 2 times higher than that of the background was taken as positive.
The thus-prepared cell aggregates on day 18 after the start of suspension culturing, which were produced by adding SAG in step 2 from feeder-free iPS cells as a starting material, were fixed with 4% para-formaldehyde to produce frozen sections. These frozen sections were immunostained for Chx10 (anti-Chx10 antibody, Exalpha, sheep), which is one of the retinal tissue markers, or Rx (anti-Rx antibody, manufactured by TAKARA, guinea pig), which is one of the retinal tissue markers. These immunostained sections were observed under an inverted fluorescence microscope.
The cell aggregates on day 18 after the start of suspension culturing were fixed with 4% para-formaldehyde to produce frozen sections. These frozen sections were immunostained for Chx10 (anti-Chx10 antibody, Exalpha, sheep), which is one of the retinal tissue markers.

[3] = test system: human iPS cells (201B7 strain); assay: Bright field observation of cell aggregates in suspension culture (neuroepithelium formation); settings: Example 6; StemFit; SAG 30 nM, Purmorphamine 0.2 μM or human recombinant Shh 50 ng/ml day 0; BMP4 1.5 nM day 3; day 18
Description: The thus-prepared subconfluent human iPS cells were treated with the cell dispersion solution by using TrypLE Select (manufactured by Life Technologies), further dispersed into single cells by pipetting operation, and the above human iPS cells dispersed into single cells were suspended in 100 μl of a serum-free medium at 1.2×10^4 cells per well of a non-cell-adhesive 96-well culture plate (PrimeSurface 96V-bottom plate, SUMITOMO BAKELITE). Thereafter, the cells were subjected to suspension culturing at 37° C., 5% CO2. As the serum-free medium (gfCDM+KSR) therefor, a serum-free medium which is a 1:1 mixture of F-12 medium and IMDM medium supplemented with 10% KSR, 450 μM 1-monothioglycerol, 1× Chemically defined lipid concentrate was used. At the time of the start of suspension culturing (day 0 after the start of suspension culturing, start of step 2), a serum-free medium supplemented with SAG (final concentration […]) as a Shh signal transduction pathway activating substance and Y27632 (20 μM) was used (FIG. 5A-D). By day 2 after the start of suspension culturing, cell aggregates were formed. On day 3 after the start of suspension culturing, a serum-free medium (50 μl) free of Y27632 and SAG was added. […] The thus-prepared cell aggregates were subjected to bright field observation under an inverted microscope (BIOREVO manufactured by KEYENCE) on day 18 after the start of suspension culturing.
The thus-prepared subconfluent human iPS cells were treated with the cell dispersion solution by using TrypLE Select (manufactured by Life Technologies), further dispersed into single cells by pipetting operation, and the above human iPS cells dispersed into single cells were suspended in 100 μl of a serum-free medium at 1.0×10^4 cells per well of a non-cell-adhesive 96-well culture plate (SUMILON SPHEROID V-bottom plate PrimeSurface 96V-bottom plate, SUMITOMO BAKELITE). Thereafter, the cells were subjected to suspension culturing at 37° C., 5% CO2. As the serum-free medium (gfCDM+KSR) therefor, a serum-free medium which is a 1:1 mixture of F-12 medium and IMDM medium supplemented with 10% KSR, 450 μM 1-monothioglycerol, 1× Chemically defined lipid concentrate was used. At the time of the start of suspension culturing (day 0 after the start of suspension culturing, start of step 2), the above serum-free medium supplemented with Y27632 (final concentration 20 μM) and further supplemented with SAG (final concentration 30 nM), Purmorphamine (manufactured by Wako, final concentration 0.2 μM), or human recombinant Shh (manufactured by R&D, Recombinant N-Terminus, final concentration 50 ng/ml) as a Shh signal transduction pathway activating substance was used (FIG. 8). On day 2 after the start of suspension culturing, a cell aggregates were formed. […]

[4] = Comparative Example 1, StemFit, no SAG, BMP4 1.5 nM on day 6, observed day 19
[5] = Example 2 Condition 2, Essential 8, no SAG, BMP4 1.5 nM day 6, day 18

Row | Molecule | aggregate growth and neuroepithelium formation (bright field) ([1]; StemFit, day 18) | proportion of Chx10-positive cells in the total cells ([2]; PMA 0.2 μM day 0) | neuroepithelium formation (bright field) [3] | presence of Chx10-positive cells in the cell aggregate ([2]; SAG 30 nM or Shh 300 ng/ml day 0) | cell aggregates collapsed [1, 4] | neural tissue formation efficiency [1, 4] | cell aggregates collapsed [1, 5] | formation efficiency of neural tissue [1, 5]
1 | c1ccc2c(Oc3nc(Nc4ccc(N5CCOCC5)cc4)c4ncn(C5CCCCC5)c4n3)cccc2c1 [PMA, 9-cyclohexyl-N-[4-(4-morpholinyl)phenyl]-2-(l-naphthalenyloxy)-9H-purin-6-amine] | cell aggregates grew and neuroepithelium was formed | not more than 60% | neuroepithelium was formed |  |  |  |  | 
2 | Shh: human recombinant Shh (manufactured by R&D, Recombinant N-Terminus), Sonic hedgehog signal transduction pathway activating substance | cell aggregates grew and neuroepithelium was formed |  | neuroepithelium was formed | contained Chx10-positive cells |  |  |  | 
3 | B1 |  |  |  |  | not less than 90% | poor | not less than 80% | poor
